Measurements: patent US20240360137A1 (Novartis AG, priority 2023, published 2024)

What was measured:
Experiment in all cases: CDKi biochemical assay (TR-FRET, phosphorylation of S780 on RB1 peptide)
CDK2/CyclinE1 = CDK2/CyclinE1 (Homo sapiens, UniProt P24941); details: CDK2/CyclinE1 100 pM, 1 mM ATP, 60 min at 25° C.
Experimental: (§1) Biochemical assays measured the inhibitory effects of compounds in this disclosure on the enzymatic activity of CDK enzyme in complex with Cyclin protein partner by phosphorylation of Ser-780 (S780) on retinoblastoma protein peptide (RB1) in the presence of 1 mM adenosime-5-triphosphate (ATP) and varying concentration of test compound in 20 mM 2-[4-(2-hydroxyethyl)paperazin-1-yl] ethanesulfonic acid (HEPES), pH 7.5, 10 mM MgCl2, 1 mM dithiothreitol (DTT), 0.01% bovine serum albumin (BSA), 0.005% Tween 20. Total Reaction volume of 10 μL proceeded for 60 minutes at room temperature (25° C.) and were quenched with 5 μL of 200 mM 2′,2″,2′″-(Ethane-1,2-diyldinitrilo)tetraacetic acid (EDTA) pH 8.0 before addition of 5 μL detection solution containing 100 nM fluorophore conjugate streptavidin allophycocyanin (SA-APC), 2 nM Europium labelled Anti-p-RB(S780)-K (Perkin Elmer, 64CUSKAY), 50 mM HEPES, pH 7.5, 400 mM potassium fluoride (KF), 0.1% BSA, and 0.01% Tween-20. Phosphorylation of S780 on RB1 peptide (His-MBP-RB1[773-924]-SEQ ID NO. 9) was detected by TR-FRET after 3 hour incubation with detection solution. Percent phosphorylation activity was plotted against log concentration of compound to generate an apparent ICSO. The following CDK enzyme in complex with different cyclin proteins and protein peptide substrate were used in these assays: • CDK1/CyclinB1, Avi-tag, 10 pM used in the assay • CDK2/CyclinE1, Avi-tag, 100 pM used in the assay • CDK4/cyclinD1, Avi-tag, 20 pM used in the assay • CDK6/cyclinD3, Avi-tag, 10 pM used in the assay • His-MBP-RB1[773-924], Avi-tag, 200 nM used in the assay
(§2) The avi-tag is a C-terminal fusion on the CDK1/2/4/6 sequence in each of these two-protein complexes. The known avi-tag sequence, […] (SEQ ID NO. 10), is a substrate for E. coli biotin ligase BirA, which covalently attaches a biotin molecule to the e-amino group of the lysine in that sequence. The avi-tag is attached with an 8 amino-acid linker sequence GGSGGGGS (SEQ ID NO. 11), resulting in the full C-terminal fusion
(§3) Recombinant proteins were generated as N-terminal fusions of 9× His tag—E. coli Maltose Binding Protein (MBP), with or without a C-terminal Avi-tag.^1 CDK2 and His-MBP-RB1[773-924]-c-avi were expressed in E. coli while the remainder were expressed in Sf21 insect cells. Genes were synthesized commercially (GeneArt and Twist Bioscience) using codon frequencies appropriate to the respective organisms and proprietary codon optimization strategies, and inserted into pET 24 (E. coli) or pDEST8 (insect) vectors already containing the 9× His-MBP tag using standard methods of PCR and Gibson Assembly.^2 E. coli expression was performed by auto-induction overnight at 18 or 21 C. For insect cell expression, bacmids and viruses were created,^3 then used to synchronously infect Sf21 insect cells with harvest at 40-48 hrs., per standard protocols.^4
(§4) For CDK2/Cyclin E and CDK1/Cyclin B, the CDK and Cyclin proteins were expressed separately, lysed by sonication and clarified by centrifugation. The fusion proteins were each separately purified by immobilized metal ion affinity chromatography (IMAC) (5 mL HisTrap, Cytiva) and Superdex 200 26/60 (Cytiva) size-exclusion and complexed in vitro (1-3 hrs incubation at room temperature) prior to tag cleavage by recombinant his-tagged Tobacco Etch Virus protease or his-tagged Human rhinovirus 3C protease, as appropriate. The cleaved complex is further purified by Superdex 75 26/60 (Cytiva) size-exclusion followed by reverse-IMAC, in which the complex is in the column flow-through and residual His-MBP and his-tagged proteases are retained. The final complex is concentrated as desired by centrifugal concentration (Amicon Ultra 10,000 Da MWCO 15 mL concentrators, Millipore).
For E. coli expressed CDK2 and His-MBP-RB1[773-924]-c-avi, the proteins were biotinylated in vitro after the first IMAC step.^1
(§5) For the is-MBP-RB1[773-924]-c-avi, the protein was lysed by sonication and clarified by centrifugation. […]

CDK6/cyclinD3 = CDK6/cyclinD3 (Homo sapiens, UniProt Q00534); details: CDK6/cyclinD3 10 pM, 1 mM ATP, 60 min at 25° C.
Experimental: as §1, §2, §3
(§6) For CDK4/Cyclin D1 and CDK6/Cyclin D3, the complexes were expressed by simultaneous co-infection of insect cells by three separate viruses including one expressing untagged E. coli BirA. The expression media is supplemented with 50 uM d-biotin. The resulting protein complexes purified similarly. After lysis and clarification, the complex is purified by IMAC, Superdex 200 26/60 size exclusion, tag cleavage by human rhinovirus 3C protease, Superdex 75 26/60 size exclusion and reverse IMAC. BirA is typically not retained on the first IMAC, and excess CDK or Cyclin monomer is separated on the Superdex 200 size exclusion. Cleaved His-MBP and remaining monomer are removed by the Superdex 75 size exclusion and the reverse IMAC step. Final concentration by centrifugal concentrators as described above.
as §5

CDK4/cyclinD1 = CDK4/cyclinD1 (Homo sapiens, UniProt P11802); details: CDK4/cyclinD1 20 pM, 1 mM ATP, 60 min at 25° C.
Experimental: as §1, §2, §3, §6, §5

CDK1/CyclinB1 = CDK1/CyclinB1 (Homo sapiens, UniProt P06493); details: CDK1/CyclinB1 10 pM, 1 mM ATP, 60 min at 25° C.
Experimental: as §1, §2, §3, §4, §5

Row | SMILES | IC50 (CDK2/CyclinE1) [µM] | IC50 (CDK6/cyclinD3) [µM] | IC50 (CDK4/cyclinD1) [µM] | IC50 (CDK1/CyclinB1) [µM]
1 | O=C1N([C@@H]2CCC[C@@H](O)C2)c2nc(Nc3c[nH]nc3OC[C@H]3COC[C@H]3F)ncc2C12CC2 [Example 75, 2′-((3-((-4-fluorotetrahydrofuran-3-yl)methoxy)-1H-pyrazol-4-yl)amino)-7′-((1R,3R)-3-hydroxycyclohexyl)spiro[cyclopropane-1,5′-pyrrolo[2,3-d]pyrimidin]-6′(7′H)-one] | 0.072 | ≥ 10 | ≥ 10 | 9.16
2 | C[C@]1(O)C[C@H](COc2n[nH]cc2Nc2ncc3c(n2)N([C@@H]2CCC[C@@H](O)C2)C(=O)C32CC2)C1 [Example 65, 2′-((3-(((1r,3R)-3-hydroxy-3-methylcyclobutyl)methoxy)-1H-pyrazol-4-yl)amino)-7′-((1R,3R)-3-hydroxycyclohexyl)spiro[cyclopropane-1,5′-pyrrolo[2,3-d]pyrimidin]-6′(7′H)-one] | 0.053 | ≥ 10 | 6.9 | 4.49
3 | Cn1ncc(-c2n[nH]cc2Nc2ncc3c(n2)N([C@@H]2CCC[C@@H](O)C2)C(=O)C32CC2)c1Cl [Example 57, 2′-((5′-chloro-1′-methyl-1H,1′H-[3,4′-bipyrazol]-4-yl)amino)-7-((1R,3R)-3-hydroxycyclohexyl)spiro[cyclopropane-1,5′-pyrrolo[2,3-d]pyrimidin]-6′(7′H)-one] | 0.015 | ≥ 10 | 7.9 | 2.04
4 | O=C1N([C@@H]2CCC[C@@H](O)C2)c2nc(Nc3cnn4c3CNCC4)ncc2C12CC2 [Example 9, 7′-((1R,3R)-3-hydroxycyclohexyl)-2′-((4,5,6,7-tetrahydropyrazolo[1,5-a]pyrazin-3-yl)amino)spiro[cyclopropane-1,5′-pyrrolo[2,3-d]pyrimidin]-6′(7′H)-one] | 0.268 | ≥ 10 | ≥ 10 | ≥ 10
5 | O=C1N([C@@H]2CCC[C@@H](O)C2)c2nc(Nc3c[nH]nc3OCC3CC3)ncc2C12CC2 [Example 38, 2′-((3-(cyclopropylmethoxy)-1H-pyrazol-4-yl)amino)-7′-((1R,3R)-3-hydroxycyclohexyl)spiro[cyclopropane-1,5′-pyrrolo[2,3-d]pyrimidin]-6′(7′H)-one] | 0.008 | 9.2 | 6.1 | 1.04
6 | O=C1N([C@@H]2CCC[C@@H](O)C2)c2nc(Nc3c[nH]nc3O[C@@H]3COC[C@@H]3F)ncc2C12CC2 [Example 26, 2′-((3-(((3R,4S)-4-fluorotetrahydrofuran-3-yl)oxy)-1H-pyrazol-4-yl)amino)-7′-((1R,3R)-3-hydroxycyclohexyl)spiro[cyclopropane-1,5′-pyrrolo[2,3-d]pyrimidin]-6′(7′H)-one] | 0.059 | 8.5 | 5.35 | ≥ 10
7 | O=C1N([C@@H]2CCC[C@@H](O)C2)c2nc(Nc3c[nH]nc3OC3CCC(F)(F)C3)ncc2C12CC2 (stereo partly shown) [Example 30] | 0.022 | 9.8 | 6.95 | 4.27
8 | Cn1ccc(-c2n[nH]cc2Nc2ncc3c(n2)N([C@@H]2CCC[C@@H](O)C2)C(=O)C32CC2)n1 [Example 79, 7-((1R,3R)-3-hydroxycyclohexyl)-2′-((1′-methyl-1H,1′H-[3,3′-bipyrazol]-4-yl)amino)spiro[cyclopropane-1,5′-pyrrolo[2,3-d]pyrimidin]-6′(7′H)-one] | 0.05 | ≥ 10 | ≥ 10 | ≥ 10
9 | O=C1N([C@@H]2CCC[C@@H](O)C2)c2nc(Nc3c[nH]nc3-c3cnn4ccccc34)ncc2C12CC2 [Example 28, 7′-((1R,3R)-3-hydroxycyclohexyl)-2′-((3-(pyrazolo[1,5-a]pyridin-3-yl)-1H-pyrazol-4-yl)amino)spiro[cyclopropane-1,5′-pyrrolo[2,3-d]pyrimidin]-6′(7′H)-one] | 0.011 | 2.54 | 2.12 | 1.18
10 | O=C1N([C@@H]2CCC[C@@H](O)C2)c2nc(Nc3c[nH]nc3O[C@H]3COC[C@@H]3F)ncc2C12CC2 [Example 25, 2′-((3-(((3S,4S)-4-fluorotetrahydrofuran-3-yl)oxy)-1H-pyrazol-4-yl)amino)-7′-((1R,3R)-3-hydroxycyclohexyl)spiro[cyclopropane-1,5′-pyrrolo[2,3-d]pyrimidin]-6′(7′H)-one] | 0.024 | ≥ 10 | ≥ 10 | 2.44
11 | CN1C[C@H](Oc2n[nH]cc2Nc2ncc3c(n2)N([C@@H]2CCC[C@@H](O)C2)C(=O)C32CC2)[C@@H](F)C1 [Example 51, 2′-((3-(((3S,4S)-4-fluoro-1-methylpyrrolidin-3-yl)oxy)-1H-pyrazol-4-yl)amino)-7′-((1R,3R)-3-hydroxycyclohexyl)spiro[cyclopropane-1,5′-pyrrolo[2,3-d]pyrimidin]-6′(7′H)-one] | 0.119 | ≥ 10 | ≥ 10 | ≥ 10
12 | Cc1n[nH]cc1Nc1ncc2c(n1)N([C@@H]1CCCC[C@@H](O)C1)C(=O)C21CC1 [Example 17, 7′-(3-hydroxycycloheptyl)-2′-((3-methyl-1H-pyrazol-4-yl)amino)spiro[cyclopropane-1,5′-pyrrolo[2,3-d]pyrimidin]-6′(7′H)-one] | 0.041 | ≥ 10 | ≥ 10 | 4.49
13 | CCOc1n[nH]cc1Nc1ncc2c(n1)N([C@@H]1CCC[C@@H](O)C1)C(=O)C21CC1 [Example 23, 2′-((3-ethoxy-1H-pyrazol-4-yl)amino)-7′-((1R,3R)-3-hydroxycyclohexyl)spiro[cyclopropane-1,5′-pyrrolo[2,3-d]pyrimidin]-6′(7′H)-one] | 0.015 | ≥ 10 | 9.45 | 2.43
14 | CSc1n[nH]cc1Nc1ncc2c(n1)N([C@@H]1CCC[C@@H](O)C1)C(=O)C21CC1 [Example 52, 7′-((1R,3R)-3-hydroxycyclohexyl)-2′-((3-(methylthio)-1H-pyrazol-4-yl)amino)spiro[cyclopropane-1,5′-pyrrolo[2,3-d]pyrimidin]-6′(7′H)-one] | 0.031 | ≥ 10 |  | 5.32
15 | COc1n[nH]cc1Nc1ncc2c(n1)N([C@@H]1CCCC[C@@H](O)C1)C(=O)C21CC1 [Example 18] | 0.114 |  | ≥ 10 | ≥ 10
